Here are results for 4 compounds from ChEMBL document CHEMBL5678818, “Discovery of potent SOS1 inhibitors that block RAS activation via disruption of the RAS-SOS1 interaction” (Proc Natl Acad Sci U S A, 2019).

For test [1], the target named is Son of sevenless homolog 2 (Homo sapiens, UniProt Q07890). Briefly: Inhibition of N-terminal His10-tagged wild-type recombinant human SOS2 catalytic domain (564 to 1043 residues) expressed in Escherichia coli assessed as reduction in KRAS G12C mutant activation preincubated for 10 mins with KRAS followed by SOS2 addition measured after 30 mins in presence of EDA-GTP-DY-647P1 by HTRF analysis.

For another test, the target named is GTPase KRas/RAF1 (Homo sapiens, UniProt P01116+P04049). The test can be described thus: Inhibition of N-terminal His10-tagged wild-type recombinant human KRAS (1 to 169 residues) expressed in Escherichia coli/N-terminal GST-tagged recombinant human CRAF RBD (51 to 131 residues) expressed in Escherichia coli protein-protein interaction preincubated for 30 mins with KRAS followed by CRAF RBD addition measured after 60 mins in presence of anti-6His-XL665/GTP by HTRF analysis.

In test [2] the target is T1, Guanine nucleotide exchange factor DBS (Homo sapiens, UniProt O15068).
T1 sequence (O15068 whole entry): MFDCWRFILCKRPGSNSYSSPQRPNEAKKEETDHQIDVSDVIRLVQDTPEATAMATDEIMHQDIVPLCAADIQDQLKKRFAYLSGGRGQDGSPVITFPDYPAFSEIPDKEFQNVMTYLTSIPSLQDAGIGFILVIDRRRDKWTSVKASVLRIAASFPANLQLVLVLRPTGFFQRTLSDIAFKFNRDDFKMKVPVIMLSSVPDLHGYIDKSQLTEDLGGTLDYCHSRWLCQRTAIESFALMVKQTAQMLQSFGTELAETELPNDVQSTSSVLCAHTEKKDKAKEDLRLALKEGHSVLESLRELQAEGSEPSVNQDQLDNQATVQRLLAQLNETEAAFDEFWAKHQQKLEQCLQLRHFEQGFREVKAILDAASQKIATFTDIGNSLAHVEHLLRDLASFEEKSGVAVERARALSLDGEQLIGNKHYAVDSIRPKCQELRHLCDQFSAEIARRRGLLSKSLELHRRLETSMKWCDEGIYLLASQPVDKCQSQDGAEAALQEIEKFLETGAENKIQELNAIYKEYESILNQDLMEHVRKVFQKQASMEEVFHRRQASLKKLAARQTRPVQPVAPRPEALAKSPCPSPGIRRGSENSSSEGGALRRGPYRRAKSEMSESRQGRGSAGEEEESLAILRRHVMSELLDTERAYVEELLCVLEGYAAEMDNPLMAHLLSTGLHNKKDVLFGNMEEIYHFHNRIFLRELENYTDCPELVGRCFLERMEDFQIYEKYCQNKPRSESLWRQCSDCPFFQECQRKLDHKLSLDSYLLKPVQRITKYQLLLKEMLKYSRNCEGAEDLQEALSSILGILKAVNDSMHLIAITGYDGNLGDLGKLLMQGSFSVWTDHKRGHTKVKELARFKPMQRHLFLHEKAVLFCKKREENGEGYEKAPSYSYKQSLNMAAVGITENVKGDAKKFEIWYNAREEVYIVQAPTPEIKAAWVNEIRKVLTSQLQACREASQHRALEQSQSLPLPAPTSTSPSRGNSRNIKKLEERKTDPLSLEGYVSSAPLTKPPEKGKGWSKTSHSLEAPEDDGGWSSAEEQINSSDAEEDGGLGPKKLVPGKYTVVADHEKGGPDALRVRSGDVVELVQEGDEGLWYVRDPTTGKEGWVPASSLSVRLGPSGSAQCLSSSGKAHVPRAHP
Briefly: Inhibition of human DBS assessed as reduction in CDC42 activation preincubated for 1 min with CDC42 followed by DBS addition measured after 20 mins in presence of EDA-GTP-DY-647P1 by HTRF analysis.

Test [3] concerns the target Epidermal growth factor receptor (Homo sapiens, UniProt P00533). Briefly: Inhibition of human EGFR using biotin-aminohexyl-AEEEEYFELVAKKK as substrate preincubated for 15 mins followed by substrate/ATP addition measured after 20 mins by FRET assay.
Another test relates to Calu-1. The test can be described thus: Antiproliferative activity against human Calu-1 cells assessed as inhibition of cell viability incubated for 72 hrs by Cell Titer Glo assay. To be noted: Calu-1, 72 h. Format: functional, cell-based.
Test [4] deals with Cyclin-dependent kinase 13 (Homo sapiens) (UniProt Q14004). Briefly: Inhibition of CDC2L5 (unknown origin) assessed as residual activity at 1000 nM by KINOMEscan analysis relative to control.
The target in test [5] is Macrophage colony-stimulating factor 1 receptor (Homo sapiens) (UniProt P07333). Briefly: Inhibition of CSF1R (unknown origin) assessed as residual activity at 1000 nM by KINOMEscan analysis relative to control.
For test [6], the target named is T2, Serine/threonine-protein kinase D2 (Homo sapiens) (UniProt Q9BZL6).
T2 sequence (whole entry): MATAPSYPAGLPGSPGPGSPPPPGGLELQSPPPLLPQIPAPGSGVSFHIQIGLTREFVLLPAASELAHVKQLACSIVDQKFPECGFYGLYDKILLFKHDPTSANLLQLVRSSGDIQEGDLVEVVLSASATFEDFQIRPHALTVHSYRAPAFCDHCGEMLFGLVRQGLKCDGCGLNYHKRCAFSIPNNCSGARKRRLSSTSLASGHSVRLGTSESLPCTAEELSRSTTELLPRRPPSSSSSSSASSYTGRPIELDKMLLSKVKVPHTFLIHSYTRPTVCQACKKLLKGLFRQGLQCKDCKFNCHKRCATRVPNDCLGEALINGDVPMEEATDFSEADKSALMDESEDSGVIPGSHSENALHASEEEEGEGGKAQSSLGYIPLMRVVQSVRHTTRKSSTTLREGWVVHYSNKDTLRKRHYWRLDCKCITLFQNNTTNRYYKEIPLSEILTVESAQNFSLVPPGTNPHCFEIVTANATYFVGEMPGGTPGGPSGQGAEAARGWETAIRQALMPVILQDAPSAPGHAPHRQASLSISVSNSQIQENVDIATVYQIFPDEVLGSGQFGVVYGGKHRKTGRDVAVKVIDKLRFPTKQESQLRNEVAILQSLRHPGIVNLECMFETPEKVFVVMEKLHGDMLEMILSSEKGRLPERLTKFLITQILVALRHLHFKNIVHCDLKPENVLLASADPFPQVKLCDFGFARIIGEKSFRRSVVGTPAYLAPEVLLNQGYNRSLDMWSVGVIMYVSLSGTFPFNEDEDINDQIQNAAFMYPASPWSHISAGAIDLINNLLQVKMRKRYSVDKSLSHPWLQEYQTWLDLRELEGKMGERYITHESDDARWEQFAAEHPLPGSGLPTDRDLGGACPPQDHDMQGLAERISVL
The test can be described thus: Inhibition of PRKD2 (unknown origin) assessed as residual activity at 1000 nM by KINOMEscan analysis relative to control.

A further test relates to MOLM-13. The test can be described thus: Antiproliferative activity against human MOLM-13 cells assessed as inhibition of cell viability incubated for 72 hrs by Cell Titer Glo assay. Format: functional, cell-based. To be noted: MOLM-13, 72 h.

`COc1cc2nc(C)nc(NC(C)c3ccc(-c4cnc5n4CCC5)s3)c2cc1OC` (stereo unspecified): the IC50 in test [1] is over 20 µM; on GTPase KRas/RAF1, over 20 µM; in test [2], over 20 µM; in test [3], over 20 µM; in the test on Calu-1 it was 0.87 µM.
Take `COc1cc2nc(C)nc(N[C@H](C)c3cccc(-c4cn[nH]c4)c3)c2cc1OC`: the IC50 was over 20 µM in test [1]; over 20 µM in test [2]; over 20 µM in [3]; 3.54 µM in the test with MOLM-13; 17 µM in the test on Calu-1. The Activity in test [4] turned out to be 87%; in test [5] it was 94%; in test [6], 100%.
Turning to `COc1cc2ncnc(N[C@H](C)c3cccc4ccccc34)c2cc1OC`, the IC50 was over 20 µM in [1]; over 20 µM at GTPase KRas/RAF1; over 20 µM in test [2]; 0.58 µM in test [3]; 2.53 µM in the test with MOLM-13. Moreover, the Activity in test [4] stood at 97%; in test [5] it was 76%; in test [6], 90%.
For the compound `CNCc1ccccc1-c1csc([C@@H](C)Nc2nc(C)nc3cc(OC)c(OC)cc23)c1` [BAY-293], the IC50 in [1] was over 20 µM; in [2], over 20 µM; in test [3] it was over 20 µM; with MOLM-13 it was 0.995 µM; in the test with Calu-1, 3.19 µM.
